{"source": "PubChem BioAssay AID1963965", "about": "(Molecular Pharmacology Branch, DTP, NCI, 2024);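 also: spheroids exposed to compounds for seven days before viability read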;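 as to viability, T/C: luminescence used as a proxy for viable cell amount; percent viability relative to DMSO vehicle control as 100%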", "tested_on": "996289-038-R-J1-PDC spheroid viability", "test": "Anticancer human tumor 996289-038-R-J1-PDC patient-derived colon adenocarcinoma cell line growth inhibition [PI3K]", "settings": "spheroids with HUVEC and MSC; for viability, T/C: stronger effect = lower value", "summary_of_the_method": "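Complex 3D spheroids (cancer cells + endothelial HUVEC + mesenchymal stem cells); drug pairs of targeted agent x inavolisib/alpelisib/duvelisib/copanlisib; half-log series from ~Cmax, max 10 microM if Cmax unknown; endpoint viability.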", "key": {"[1]": {"settings": "curve of first compound, second compound 0.0316 µM"}, "[2]": {"settings": "curve of first compound, second compound 0.1 µM"}, "[3]": {"settings": "curve of first compound, second compound 0.316 µM"}, "[4]": {"settings": "curve of first compound, second compound 1 µM"}}, "data": [{"smiles": "Cn1cnc2c(F)c(Nc3ccc(Br)cc3Cl)c(C(=O)NOCCO)cc21", "note": "+ CC(Nc1ccc2c(c1)OCCn1cc(N3C(=O)OCC3C(F)F)nc1-2)C(N)=O", "values": [{"measurement": "IC50", "setting": "curve of first compound, second compound 0.00316 µM", "value": 285, "unit": "nM"}, {"measurement": "IC50", "setting": "curve of first compound, second compound 0.01 µM", "value": 339, "unit": "nM"}, {"measurement": "IC50", "setting": "[1]", "value": 206, "unit": "nM"}, {"measurement": "IC50", "setting": "[2]", "value": 91.1, "unit": "nM"}, {"measurement": "IC50", "setting": "[3]", "value": 38.9, "unit": "nM"}, {"measurement": "IC50", "setting": "[4]", "value": 25.2, "unit": "nM"}, {"measurement": "viability, T/C", "setting": "second compound 0.00316 µM, first compound 0.00949 µM", "value": 100, "unit": "%"}, {"measurement": "viability, T/C", "setting": "second compound 0.00316 µM, first compound 0.03 µM", "value": 84.9, "unit": "%"}, {"measurement": "viability, T/C", "setting": "second compound 0.00316 µM, first compound 0.0949 µM", "value": 64, "unit": "%"}, {"measurement": "viability, T/C", "setting": "second compound 0.00316 µM, first compound 0.3 µM", "value": 51, "unit": "%"}, {"measurement": "viability, T/C", "setting": "second compound 0.00316 µM, first compound 0.949 µM", "value": 35.1, "unit": "%"}, {"measurement": "viability, T/C", "setting": "second compound 0.00316 µM, first compound 3 µM", "value": 26.2, "unit": "%"}, {"measurement": "viability, T/C", "setting": "second compound 0.01 µM, first compound 0.00949 µM", "value": 95.9, "unit": "%"}, {"measurement": "viability, T/C", "setting": "second compound 0.01 µM, first compound 0.03 µM", "value": 74.2, "unit": "%"}, {"measurement": "viability, T/C", "setting": "second compound 0.01 µM, first compound 0.0949 µM", "value": 71.6, "unit": "%"}, {"measurement": "viability, T/C", "setting": "second compound 0.01 µM, first compound 0.3 µM", "value": 49.9, "unit": "%"}, {"measurement": "viability, T/C", "setting": "second compound 0.01 µM, first compound 0.949 µM", "value": 36.3, "unit": "%"}, {"measurement": "viability, T/C", "setting": "second compound 0.01 µM, first compound 3 µM", "value": 24.7, "unit": "%"}, {"measurement": "viability, T/C", "setting": "second compound 0.0316 µM, first compound 0.00949 µM", "value": 95.3, "unit": "%"}, {"measurement": "viability, T/C", "setting": "second compound 0.0316 µM, first compound 0.03 µM", "value": 79.7, "unit": "%"}, {"measurement": "viability, T/C", "setting": "second compound 0.0316 µM, first compound 0.0949 µM", "value": 58.6, "unit": "%"}, {"measurement": "viability, T/C", "setting": "second compound 0.0316 µM, first compound 0.3 µM", "value": 44.1, "unit": "%"}, {"measurement": "viability, T/C", "setting": "second compound 0.0316 µM, first compound 0.949 µM", "value": 35.6, "unit": "%"}, {"measurement": "viability, T/C", "setting": "second compound 0.0316 µM, first compound 3 µM", "value": 23.7, "unit": "%"}, {"measurement": "viability, T/C", "setting": "second compound 0.1 µM, first compound 0.00949 µM", "value": 84.7, "unit": "%"}, {"measurement": "viability, T/C", "setting": "second compound 0.1 µM, first compound 0.03 µM", "value": 69.3, "unit": "%"}, {"measurement": "viability, T/C", "setting": "second compound 0.1 µM, first compound 0.0949 µM", "value": 47.3, "unit": "%"}, {"measurement": "viability, T/C", "setting": "second compound 0.1 µM, first compound 0.3 µM", "value": 35, "unit": "%"}, {"measurement": "viability, T/C", "setting": "second compound 0.1 µM, first compound 0.949 µM", "value": 26.7, "unit": "%"}, {"measurement": "viability, T/C", "setting": "second compound 0.1 µM, first compound 3 µM", "value": 18.5, "unit": "%"}, {"measurement": "viability, T/C", "setting": "second compound 0.316 µM, first compound 0.00949 µM", "value": 60.6, "unit": "%"}, {"measurement": "viability, T/C", "setting": "second compound 0.316 µM, first compound 0.03 µM", "value": 53.4, "unit": "%"}, {"measurement": "viability, T/C", "setting": "second compound 0.316 µM, first compound 0.0949 µM", "value": 41.8, "unit": "%"}, {"measurement": "viability, T/C", "setting": "second compound 0.316 µM, first compound 0.3 µM", "value": 31.1, "unit": "%"}, {"measurement": "viability, T/C", "setting": "second compound 0.316 µM, first compound 0.949 µM", "value": 24.9, "unit": "%"}, {"measurement": "viability, T/C", "setting": "second compound 0.316 µM, first compound 3 µM", "value": 13.7, "unit": "%"}, {"measurement": "viability, T/C", "setting": "second compound 1 µM, first compound 0.00949 µM", "value": 58.7, "unit": "%"}, {"measurement": "viability, T/C", "setting": "second compound 1 µM, first compound 0.03 µM", "value": 48, "unit": "%"}, {"measurement": "viability, T/C", "setting": "second compound 1 µM, first compound 0.0949 µM", "value": 38.4, "unit": "%"}, {"measurement": "viability, T/C", "setting": "second compound 1 µM, first compound 0.3 µM", "value": 27.4, "unit": "%"}, {"measurement": "viability, T/C", "setting": "second compound 1 µM, first compound 0.949 µM", "value": 18.9, "unit": "%"}, {"measurement": "viability, T/C", "setting": "second compound 1 µM, first compound 3 µM", "value": 11.4, "unit": "%"}]}, {"smiles": "Cn1nccc1Nc1nccc(-c2ccn(C(CO)c3ccc(Cl)c(F)c3)c(=O)c2)n1", "note": "(stereo unspecified) + Cc1nc(NC(=O)N2CCCC2C(N)=O)sc1-c1ccnc(C(C)(C)C(F)(F)F)c1", "values": [{"measurement": "IC50", "setting": "[1]", "value": "> 10000", "unit": "nM"}, {"measurement": "IC50", "setting": "[2]", "value": "> 10000", "unit": "nM"}, {"measurement": "IC50", "setting": "[3]", "value": "> 10000", "unit": "nM"}, {"measurement": "IC50", "setting": "[4]", "value": 3530, "unit": "nM"}, {"measurement": "IC50", "setting": "curve of first compound, second compound 3.16 µM", "value": 3560, "unit": "nM"}, {"measurement": "IC50", "setting": "curve of first compound, second compound 10 µM", "value": "< 31.6", "unit": "nM"}, {"measurement": "viability, T/C", "setting": "second compound 0.0316 µM, first compound 0.0316 µM", "value": 106, "unit": "%"}, {"measurement": "viability, T/C", "setting": "second compound 0.0316 µM, first compound 0.1 µM", "value": 114, "unit": "%"}, {"measurement": "viability, T/C", "setting": "second compound 0.0316 µM, first compound 0.316 µM", "value": 108, "unit": "%"}, {"measurement": "viability, T/C", "setting": "second compound 0.0316 µM, first compound 1 µM", "value": 85.8, "unit": "%"}, {"measurement": "viability, T/C", "setting": "second compound 0.0316 µM, first compound 3.16 µM", "value": 97, "unit": "%"}, {"measurement": "viability, T/C", "setting": "second compound 0.0316 µM, first compound 10 µM", "value": 55.2, "unit": "%"}, {"measurement": "viability, T/C", "setting": "second compound 0.1 µM, first compound 0.0316 µM", "value": 107, "unit": "%"}, {"measurement": "viability, T/C", "setting": "second compound 0.1 µM, first compound 0.1 µM", "value": 96.8, "unit": "%"}, {"measurement": "viability, T/C", "setting": "second compound 0.1 µM, first compound 0.316 µM", "value": 101, "unit": "%"}, {"measurement": "viability, T/C", "setting": "second compound 0.1 µM, first compound 1 µM", "value": 85.6, "unit": "%"}, {"measurement": "viability, T/C", "setting": "second compound 0.1 µM, first compound 3.16 µM", "value": 70.2, "unit": "%"}, {"measurement": "viability, T/C", "setting": "second compound 0.1 µM, first compound 10 µM", "value": 52.1, "unit": "%"}, {"measurement": "viability, T/C", "setting": "second compound 0.316 µM, first compound 0.0316 µM", "value": 92.5, "unit": "%"}, {"measurement": "viability, T/C", "setting": "second compound 0.316 µM, first compound 0.1 µM", "value": 84.5, "unit": "%"}, {"measurement": "viability, T/C", "setting": "second compound 0.316 µM, first compound 0.316 µM", "value": 101, "unit": "%"}, {"measurement": "viability, T/C", "setting": "second compound 0.316 µM, first compound 1 µM", "value": 72.7, "unit": "%"}, {"measurement": "viability, T/C", "setting": "second compound 0.316 µM, first compound 3.16 µM", "value": 61.4, "unit": "%"}, {"measurement": "viability, T/C", "setting": "second compound 0.316 µM, first compound 10 µM", "value": 49.5, "unit": "%"}, {"measurement": "viability, T/C", "setting": "second compound 1 µM, first compound 0.0316 µM", "value": 76.8, "unit": "%"}, {"measurement": "viability, T/C", "setting": "second compound 1 µM, first compound 0.1 µM", "value": 90, "unit": "%"}, {"measurement": "viability, T/C", "setting": "second compound 1 µM, first compound 0.316 µM", "value": 72.5, "unit": "%"}, {"measurement": "viability, T/C", "setting": "second compound 1 µM, first compound 1 µM", "value": 62, "unit": "%"}, {"measurement": "viability, T/C", "setting": "second compound 1 µM, first compound 3.16 µM", "value": 54.1, "unit": "%"}, {"measurement": "viability, T/C", "setting": "second compound 1 µM, first compound 10 µM", "value": 38.8, "unit": "%"}, {"measurement": "viability, T/C", "setting": "second compound 3.16 µM, first compound 0.0316 µM", "value": 54.8, "unit": "%"}, {"measurement": "viability, T/C", "setting": "second compound 3.16 µM, first compound 0.1 µM", "value": 57.4, "unit": "%"}, {"measurement": "viability, T/C", "setting": "second compound 3.16 µM, first compound 0.316 µM", "value": 63, "unit": "%"}, {"measurement": "viability, T/C", "setting": "second compound 3.16 µM, first compound 1 µM", "value": 54.9, "unit": "%"}, {"measurement": "viability, T/C", "setting": "second compound 3.16 µM, first compound 3.16 µM", "value": 52.9, "unit": "%"}, {"measurement": "viability, T/C", "setting": "second compound 3.16 µM, first compound 10 µM", "value": 27.1, "unit": "%"}, {"measurement": "viability, T/C", "setting": "second compound 10 µM, first compound 0.0316 µM", "value": 44.7, "unit": "%"}, {"measurement": "viability, T/C", "setting": "second compound 10 µM, first compound 0.1 µM", "value": 40.6, "unit": "%"}, {"measurement": "viability, T/C", "setting": "second compound 10 µM, first compound 0.316 µM", "value": 57.9, "unit": "%"}, {"measurement": "viability, T/C", "setting": "second compound 10 µM, first compound 1 µM", "value": 34.7, "unit": "%"}, {"measurement": "viability, T/C", "setting": "second compound 10 µM, first compound 3.16 µM", "value": 29.4, "unit": "%"}, {"measurement": "viability, T/C", "setting": "second compound 10 µM, first compound 10 µM", "value": 15.7, "unit": "%"}]}, {"smiles": "COc1c(OCCCN2CCOCC2)ccc2c3n(c(=NC(=O)c4cnc(N)nc4)nc12)CCN3", "values": [{"measurement": "viability, T/C", "setting": "compound 0.00316 µM", "value": "96.3% [middle of 8 runs]"}, {"measurement": "viability, T/C", "setting": "compound 0.01 µM", "value": "96.2% [middle of 8 runs]"}, {"measurement": "viability, T/C", "setting": "compound 0.0316 µM", "value": "76.4% [middle of 8 runs]"}, {"measurement": "viability, T/C", "setting": "compound 0.1 µM", "value": "61.7% [middle of 8 runs]"}, {"measurement": "viability, T/C", "setting": "compound 0.316 µM", "value": "36.1% [middle of 8 runs]"}, {"measurement": "viability, T/C", "setting": "compound 1 µM", "value": "21.6% [middle of 8 runs]"}, {"measurement": "IC50", "setting": "compound alone, run of 06/13/2023", "value": "162 nM [middle of 8 runs]"}]}]}
